Measurements as given in patent US7138361B2, “Herbicidal heterocycles” (E. I. du Pont de Nemours and Company, priority 2000, dated 2006).

Legend:
Type in all cases: in vivo
corn (Zea mays) [1] = test: Test B preemergence
From the text: (§1) Seeds selected from barnyardgrass (Echinochloa crus-galli), Surinam grass (Brachiaria decumbens), cocklebur (Xanthium strumarium), corn (Zea mays), crabgrass (Digitaria sanguinalis), giant foxtail (Setaria faberii), lambsquarters (Chenopodium album), morning glory (Ipomoea hederacea), pigweed (Amaranthus retroflexus), rice (Oryza saliva) and velvetleaf (Abutilon theophrasti) were planted and treated preemergence with test chemicals formulated in a non-phytotoxic solvent mixture which included a surfactant.
(§2) At the same time, plants selected from these crop and weed species and also blackgrass (Alopecurus myosuroides), wheat (Triticum aestivum) and wild oat (Avena fatua) were treated with postemergence applications of test chemicals formulated in the same manner. Plants ranged in height from 2 to 18 cm (1- to 4-leaf stage) for postemergence treatments. Plant species in the flooded paddy test consisted of rice (Oryza saliva), smallflower flatsedge (Cyperus difformis), duck salad (Heteranthera limosa) and barnyardgrass (Echinochloa crus-galli) grown to the 2-leaf stage for testing. Treated plants and controls were maintained in a greenhouse for 13 to 15 days, after which time all species were compared to controls and visually evaluated. Plant response ratings, summarized in Table B, are based on a scale of 0 to 100 where 0 is no effect and 100 is complete control. A dash (-) response means no test result.

[2] = test system: cocklebur (Xanthium strumarium); test: Test B preemergence
From the text: as §1, §2

[3] = test system: lambsquarters (Chenopodium album); test: Test B preemergence
From the text: as §1, §2

[4] = test system: velvetleaf (Abutilon theophrasti); test: Test B preemergence
From the text: as §1, §2

rice (Oryza saliva) [5] = test: Test B preemergence
From the text: as §1, §2

[6] = test system: giant foxtail (Setaria faberii); test: Test B preemergence
From the text: as §1, §2

[7] = test system: morning glory (Ipomoea hederacea); test: Test B preemergence
From the text: as §1, §2

[8] = test system: Surinam grass (Brachiaria decumbens); test: Test B preemergence
From the text: as §1, §2

[9] = test system: barnyardgrass (Echinochloa crus-galli); test: Test B preemergence
From the text: as §1, §2

[10] = test system: pigweed (Amaranthus retroflexus); test: Test B preemergence
From the text: as §1, §2

[11] = test system: crabgrass (Digitaria sanguinalis); test: Test B preemergence
From the text: as §1, §2

rice (Oryza saliva) [12] = test: Test C flooded paddy test; details: for Rice plant response rating: Flooded Paddy, scale 0 to 100, 0 no effect, 100 complete control; for Plant response rating, Rice: flooded paddy test, scale 0 to 100 (0 no effect, 100 complete control)
Outline: (§3)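 Visual injury score, 0 (no effect) to 100 (complete control), relative to controls. Paddy plants treated at 2-leaf stage; greenhouse hold 12–14 d before rating.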

[13] = test system: duck salad (Heteranthera limosa); test: Test C flooded paddy test; details: for Ducksalad plant response rating: Flooded Paddy, scale 0 to 100, 0 no effect, 100 complete control; for Plant response rating, Ducksalad: flooded paddy test, scale 0 to 100 (0 no effect, 100 complete control)
Outline: as §3

[14] = test system: smallflower flatsedge (Cyperus difformis); test: Test C flooded paddy test; details: for Flatsedge plant response rating: Flooded Paddy, scale 0 to 100, 0 no effect, 100 complete control; for Plant response rating, Flatsedge: flooded paddy test, scale 0 to 100 (0 no effect, 100 complete control)
Outline: as §3

[15] = test system: barnyardgrass (Echinochloa crus-galli); test: Test C flooded paddy test; details: for Barnyardgrass plant response rating: Flooded Paddy, scale 0 to 100, 0 no effect, 100 complete control; for Plant response rating, Barnyardgrass: flooded paddy test, scale 0 to 100 (0 no effect, 100 complete control)
Outline: as §3

corn (Zea mays) [16] = test: Test B postemergence
From the text: as §1, §2

[17] = test system: cocklebur (Xanthium strumarium); test: Test B postemergence
From the text: as §1, §2

[18] = test system: lambsquarters (Chenopodium album); test: Test B postemergence
From the text: as §1, §2

[19] = test system: velvetleaf (Abutilon theophrasti); test: Test B postemergence
From the text: as §1, §2

wild oat (Avena fatua) = test: Test B postemergence
From the text: as §1, §2

[20] = test system: giant foxtail (Setaria faberii); test: Test B postemergence
From the text: as §1, §2

[21] = test system: morning glory (Ipomoea hederacea); test: Test B postemergence
From the text: as §1, §2

[22] = test system: wheat (Triticum aestivum); test: Test B postemergence
From the text: as §1, §2

[23] = test system: Surinam grass (Brachiaria decumbens); test: Test B postemergence
From the text: as §1, §2

[24] = test system: blackgrass (Alopecurus myosuroides); test: Test B postemergence; details: 13 to 15 days
From the text: as §1, §2

[25] = test system: barnyardgrass (Echinochloa crus-galli); test: Test B postemergence
From the text: as §1, §2

[26] = test system: pigweed (Amaranthus retroflexus); test: Test B postemergence
From the text: as §1, §2

[27] = test system: crabgrass (Digitaria sanguinalis); test: Test B postemergence
From the text: as §1, §2

[28] = Preemergence, Rate 500 g/ha, scale 0 to 100, 0 no effect, 100 complete control
[29] = preemergence, Rate 125 g/ha, scale of 0 to 100 where 0 is no effect and 100 is complete control, 13 to 15 days
[30] = Rate 125 g/ha, scale 0 (no effect) to 100 (complete control), 13 to 15 days
[31] = Rate 500 g/ha, scale 0 to 100, 0 is no effect, 100 is complete control, 13 to 15 days
[32] = Rate 500 g/ha, scale 0 to 100, 0 is no effect, 100 is complete control
[33] = Rate 125 g/ha, scale 0 to 100, 0 no effect, 100 complete control

## CC(C)c1ccn(C2OCN(c3cccc(OC(F)(F)F)c3)C2=O)n1 (centres unmarked) [Compound 65]
Corn (Zea mays) [1]; [28]
  Plant response rating, Corn: 0
Corn (Zea mays) [1]; [29]
  Plant response rating, Corn: 0
[2]; [28]
  Plant response rating, Cocklebur: 20
[2]; [29]
  Plant response rating, Cocklebur: 0
[3]; [28]
  Plant response rating, Lambsquarters: 100
[3]; [29]
  Plant response rating, Lambsquarters: 100
[4]; [28]
  Plant response rating, Velvetleaf: 20
[4]; [29]
  Plant response rating, Velvetleaf: 0
Rice (Oryza saliva) [5]; [28]
  Plant response rating, Rice: 20
Rice (Oryza saliva) [5]; [29]
  Plant response rating, Rice: 0
[6]; [28]
  Plant response rating, Foxtail, Giant: 70
[6]; [29]
  Plant response rating, Foxtail, Giant: 20
[7]; [28]
  Plant response rating, Morningglory: 0
[7]; [29]
  Plant response rating, Morningglory: 0
[8]; [28]
  Plant response rating, Surinam grass: 20
[8]; [29]
  Plant response rating, Surinam grass: 0
[9]; [28]
  Plant response rating, Barnyardgrass: 100
[9]; [29]
  Plant response rating, Barnyardgrass: 90
[10]; [28]
  Plant response rating, Pigweed: 100
[10]; [29]
  Plant response rating, Pigweed: 100
[11]; [28]
  Plant response rating, Crabgrass: 70
[11]; [29]
  Plant response rating, Crabgrass: 20
Rice (Oryza saliva) [12]; Rate 250 g/ha
  Rice plant response rating: 90
Rice (Oryza saliva) [12]; Rate 500 g/ha
  Rice plant response rating: 90
Rice (Oryza saliva) [12]; Rate 62 g/ha
  Plant response rating, Rice: 0
Rice (Oryza saliva) [12]; Rate 125 g/ha
  Plant response rating, Rice: 40
[13]; Rate 250 g/ha
  Ducksalad plant response rating: 30
[13]; Rate 500 g/ha
  Ducksalad plant response rating: 90
[13]; Rate 62 g/ha
  Plant response rating, Ducksalad: 0
[13]; Rate 125 g/ha
  Plant response rating, Ducksalad: 0
[14]; Rate 250 g/ha
  Flatsedge plant response rating: 100
[14]; Rate 500 g/ha
  Flatsedge plant response rating: 100
[14]; Rate 62 g/ha
  Plant response rating, Flatsedge: 0
[14]; Rate 125 g/ha
  Plant response rating, Flatsedge: 100
[15]; Rate 250 g/ha
  Barnyardgrass plant response rating: 100
[15]; Rate 500 g/ha
  Barnyardgrass plant response rating: 100
[15]; Rate 62 g/ha
  Plant response rating, Barnyardgrass: 40
[15]; Rate 125 g/ha
  Plant response rating, Barnyardgrass: 80
Corn (Zea mays) [16]; [30]
  Plant response rating, Corn: 0
Corn (Zea mays) [16]; [31]
  Plant response rating, Corn: 0
[17]; [30]
  Plant response rating, Cocklebur: 20
[17]; [31]
  Plant response rating, Cocklebur: 30
[18]; [30]
  Plant response rating, Lambsquarters: 60
[18]; [31]
  Plant response rating, Lambsquarters: 70
[19]; [30]
  Plant response rating, Velvetleaf: 0
[19]; [31]
  Plant response rating, Velvetleaf: 0
Wild oat (Avena fatua); [30]
  Plant response rating, Wild Oat: 0
Wild oat (Avena fatua); [31]
  Plant response rating, Wild Oat: 0
[20]; [30]
  Plant response rating, Foxtail, Giant: 0
[20]; [31]
  Plant response rating, Foxtail, Giant: 0
[21]; [30]
  Plant response rating, Morningglory: 0
[21]; [31]
  Plant response rating, Morningglory: 0
[22]; [30]
  Plant response rating, Wheat: 0
[22]; [31]
  Plant response rating, Wheat: 0
[23]; [30]
  Plant response rating, Surinam grass: 20
[23]; [31]
  Plant response rating, Surinam grass: 40
[24]; Rate 125 g/ha, scale 0 (no effect) to 100 (complete control)
  Plant response rating, Blackgrass: 0
[24]; [32]
  Plant response rating, Blackgrass: 0
[25]; [30]
  Plant response rating, Barnyardgrass: 0
[25]; [31]
  Plant response rating, Barnyardgrass: 100
[26]; [30]
  Plant response rating, Pigweed: 0
[26]; [31]
  Plant response rating, Pigweed: 0
[27]; [30]
  Plant response rating, Crabgrass: 0
[27]; [31]
  Plant response rating, Crabgrass: 100

## CCCOC(=O)c1cccc(N2CCC(n3ccc(C(C)(C)C)n3)C2=O)c1 (centres unmarked) [Compound 123]
Corn (Zea mays) [1]; [28]
  Plant response rating, Corn: 0
Corn (Zea mays) [1]; [29]
  Plant response rating, Corn: 0
[2]; [28]
  Plant response rating, Cocklebur: 0
[2]; [29]
  Plant response rating, Cocklebur: 0
[3]; [28]
  Plant response rating, Lambsquarters: 60
[3]; [29]
  Plant response rating, Lambsquarters: 0
[4]; [28]
  Plant response rating, Velvetleaf: 0
[4]; [29]
  Plant response rating, Velvetleaf: 0
Rice (Oryza saliva) [5]; [28]
  Plant response rating, Rice: 0
Rice (Oryza saliva) [5]; [29]
  Plant response rating, Rice: 0
[6]; [28]
  Plant response rating, Foxtail, Giant: 0
[6]; [29]
  Plant response rating, Foxtail, Giant: 0
[7]; [28]
  Plant response rating, Morningglory: 0
[7]; [29]
  Plant response rating, Morningglory: 0
[8]; [28]
  Plant response rating, Surinam grass: 0
[8]; [29]
  Plant response rating, Surinam grass: 0
[9]; [28]
  Plant response rating, Barnyardgrass: 0
[9]; [29]
  Plant response rating, Barnyardgrass: 0
[10]; [28]
  Plant response rating, Pigweed: 70
[10]; [29]
  Plant response rating, Pigweed: 0
[11]; [28]
  Plant response rating, Crabgrass: 60
[11]; [29]
  Plant response rating, Crabgrass: 0
Rice (Oryza saliva) [12]; Rate 250 g/ha
  Rice plant response rating: 0
Rice (Oryza saliva) [12]; Rate 500 g/ha
  Rice plant response rating: 0
Rice (Oryza saliva) [12]; Rate 62 g/ha
  Plant response rating, Rice: 0
Rice (Oryza saliva) [12]; Rate 125 g/ha
  Plant response rating, Rice: 0
[13]; Rate 250 g/ha
  Ducksalad plant response rating: 60
[13]; Rate 500 g/ha
  Ducksalad plant response rating: 70
[13]; Rate 62 g/ha
  Plant response rating, Ducksalad: 20
[13]; Rate 125 g/ha
  Plant response rating, Ducksalad: 20
[14]; Rate 250 g/ha
  Flatsedge plant response rating: 50
[14]; Rate 500 g/ha
  Flatsedge plant response rating: 90
[14]; Rate 62 g/ha
  Plant response rating, Flatsedge: 30
[14]; Rate 125 g/ha
  Plant response rating, Flatsedge: 30
[15]; Rate 250 g/ha
  Barnyardgrass plant response rating: 0
[15]; Rate 500 g/ha
  Barnyardgrass plant response rating: 0
[15]; Rate 62 g/ha
  Plant response rating, Barnyardgrass: 0
[15]; Rate 125 g/ha
  Plant response rating, Barnyardgrass: 0
Corn (Zea mays) [16]; [33]
  Plant response rating, Corn: 0
Corn (Zea mays) [16]; [31]
  Plant response rating, Corn: 0
[17]; [33]
  Plant response rating, Cocklebur: 30
[17]; [31]
  Plant response rating, Cocklebur: 80
[18]; [33]
  Plant response rating, Lambsquarters: 0
[19]; [33]
  Plant response rating, Velvetleaf: 0
Wild oat (Avena fatua); [33]
  Plant response rating, Wild Oat: 0
[20]; [33]
  Plant response rating, Foxtail, Giant: 0
[21]; [33]
  Plant response rating, Morningglory: 0
[22]; [33]
  Plant response rating, Wheat: 0
[23]; [33]
  Plant response rating, Surinam grass: 0
[23]; [31]
  Plant response rating, Surinam grass: 0
[24]; [32]
  Plant response rating, Blackgrass: 0
[25]; [33]
  Plant response rating, Barnyardgrass: 0
[25]; [31]
  Plant response rating, Barnyardgrass: 0
[26]; [33]
  Plant response rating, Pigweed: 0
[27]; [33]
  Plant response rating, Crabgrass: 0
